# How the values were obtained:
# [1] = biological target: hTRPV1 (Homo sapiens, UniProt Q8NER1); experiment: FLIPR calcium influx assay, hTRPV1 WT in HEK293T; format: cell-based; details: 3.33 µM capsaicin
# [2] = biological target: hTRPV1 S512F (Homo sapiens, UniProt Q8NER1, S512F); experiment: FLIPR calcium influx assay, hTRPV1 S512F mutant; format: cell-based; details: also unresponsive to pH
# [3] = system: TRPV1; details: CHL at concentrations up to 250 μM; cited from earlier work
# hTRPV1 S512F, sequence (Q8NER1 whole entry S512F): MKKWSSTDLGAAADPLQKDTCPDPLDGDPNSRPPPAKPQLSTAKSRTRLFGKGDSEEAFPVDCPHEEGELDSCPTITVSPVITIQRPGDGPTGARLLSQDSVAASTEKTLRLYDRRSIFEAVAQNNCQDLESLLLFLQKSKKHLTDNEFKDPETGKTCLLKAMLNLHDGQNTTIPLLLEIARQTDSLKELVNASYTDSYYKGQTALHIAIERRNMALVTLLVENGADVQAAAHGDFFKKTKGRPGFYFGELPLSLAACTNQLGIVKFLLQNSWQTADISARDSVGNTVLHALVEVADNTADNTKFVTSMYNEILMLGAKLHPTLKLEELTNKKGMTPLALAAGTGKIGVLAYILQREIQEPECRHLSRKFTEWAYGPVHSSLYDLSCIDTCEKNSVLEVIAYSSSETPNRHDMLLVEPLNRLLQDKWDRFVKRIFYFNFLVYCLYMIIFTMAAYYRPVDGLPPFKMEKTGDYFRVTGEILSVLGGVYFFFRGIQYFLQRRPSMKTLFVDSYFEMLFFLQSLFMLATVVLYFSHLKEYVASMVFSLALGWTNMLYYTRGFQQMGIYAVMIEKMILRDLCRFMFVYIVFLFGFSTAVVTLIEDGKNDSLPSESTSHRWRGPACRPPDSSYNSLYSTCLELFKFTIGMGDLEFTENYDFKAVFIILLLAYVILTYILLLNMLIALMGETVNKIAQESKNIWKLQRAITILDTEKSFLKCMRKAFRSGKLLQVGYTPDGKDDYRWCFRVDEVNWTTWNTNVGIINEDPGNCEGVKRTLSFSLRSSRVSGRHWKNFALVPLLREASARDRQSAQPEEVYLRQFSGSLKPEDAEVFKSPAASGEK
# hTRPV1, sequence (Q8NER1 whole entry): as the sequence (Q8NER1 whole entry S512F) above, with F512S counted along it
activation of hTRPV1 by capsaicin [1],response of mutant to capsaicin [2],Structure (SMILES),inhibition of TRPV1 currents evoked by 2-APB [3]
80–90%,unresponsive,COc1cc(CNC(=O)CCCC/C=C/C(C)C)ccc1O [capsaicin],
,,"CC(C)CCC[C@@H](C)[C@H]1CC[C@H]2[C@@H]3CC=C4C[C@@H](O)CC[C@]4(C)[C@H]3CC[C@]12C [CHL, cholesterol]",not inhibited

# Source: article PMC11303535 (Nature Communications, 2024)
